Where “and” joins values, the source holds several entries; their conditions need not be identical. Identical values can stand only once. Entries after “also recorded” stand apart in the source; their conditions may differ. Peptide text beside a SMILES is read from it.
Key:
[1] = biological target: T1, GABAB receptor (Rattus norvegicus, UniProt O88871+Q9Z0U4); conditions: rat neocortical slices; cited from earlier work
T1 construct: GABAB receptor-mediated hyperpolarizing responses to baclofen in rat neocortical slices (Kerr, 2003); host or cells: rat neocortical slices (tissue, endogenous receptor)

[2] = tested on: presynaptic terminals of cultured hippocampal neurons; assay: TBS-induced presynaptic plasticity measured by FM 1-43 dye uptake in hippocampal cultures; format: cell-based, rat; conditions: for TBS-induced potentiation / plasticity after prolonged treatment: 48 hours of incubation
[3] = tested on: postsynaptic locations of cultured hippocampal neurons; assay: postsynaptic evoked current response to iontophoretic glutamate (AMPA-R insertion); format: cell-based, rat; conditions: Mg^++-treated culture; reversed by washout
From the text: These were generally as described in the preceding examples. Glutamatergic iontophoresis was perfomed as described [Murnick 2000].
Since we wished to correlate the above pre-synaptic findings to the plasticity of single or small clusters of postsynaptic locations, this ruled out traditional double-patch plasticity experiments in which heterogeneous populations of connections are studied. Such studies also usually confound pre-synaptic and postsynaptic effects. For this purpose, we developed a technique of high-temporal and spatial resolution glutamatergic iontophoresis that allows us to stimulate single or small clusters of postsynaptic locations (resolution ˜2 μm, 1 ms; [Murnick 2000]).
To determine whether a decrease in overall activity of a neural network leads to increased plasticity (i.e., an increase in synaptic strength in response to a pattern of stimulation) of postsynaptic locations, we assessed the effect of treatment with Mg^++ on the ability of postsynaptic locations to respond to glutamate. As described above, Mg^++ blocks the NMDA receptor channel at resting membrane potential, so Mg^++ treatment reduces the overall activity level of the neural network. As also described above, increases in postsynaptic intracellular Ca^++ stimulated by activation of NMDA receptors leads to recruitment of AMPA receptors and their insertion into the postsynaptic membrane. […]

[4] = biological target: NMDA receptors (NR2B-containing) (Rattus norvegicus, UniProt P35439+Q00960); assay: evoked NMDA currents ([…]), double-perforated patch; format: cell-based
Procedure: (§1) Electrophysiology. Dual whole cell perforated patch clamp recordings were made on two interconnected cultured hippocampal pyramidal neurons. Perforated patch pipettes were front-filled with a solution containing (in mM): CsOH, 127; D-gluconic acid, 127; CsCl, 4; HEPES, 10; NaCl, 8; EGTA, 0.4; pH was adjusted to 7.25 with CsOH, and then back-filled with the same solution containing […] amphotericin B (Sigma, St. Louis, Mo.). Extracellular solution contained (in mM): NaCl, 145; KCl, 3; glucose, 15; HEPES, 10; MgCl2, 0.8-1.2; CaCl2, 1.2; 0.005 glycine (Sigma), 0.05 picrotoxin (Sigma); pH adjusted to 7.4 with NaOH. MgCl2 concentration was matched to its concentration in culture medium. In experiments where effects of drugs on neuronal activity were quantified (FIG. 4D), recordings were done in culture medium (with HEPES replacing bicarbonate/CO2 to maintain pH). All experiments were performed at room temperature. For assaying synaptic connectivity, each neuron was stimulated by 1 ms step depolarization from −70 to +30 mV in voltage-clamp mode. Only neurons with monosynaptic connections were used. […] Recordings with access resistance>20 MΩ or that varied substantially were rejected from analysis.
We hypothesized that one target may be the number and properties of NMDA receptors at individual synapses.

[5] = tested on: excitatory and inhibitory terminals; conditions: short treatment (2-24 hr)
[6] = tested on: cultured hippocampal neurons; assay: control recordings of membrane potential, synaptic inputs and firing; format: cell-based, rat; conditions: treatments of FIG. 5D
Procedure: as §1

[7] = tested on: structural synaptic terminals; assay: FM dye uptake of structural synaptic terminals, 30 AP protocol; format: cell-based, rat; conditions: 100 ng/ml BDNF
Procedure: FM 1-43 Loading and Destaining. Functional presynaptic boutons were stained with 10 μM FM 1-43 (synaptogreen, Biotium) by eliciting 30 APs at 0.5-1 Hz. This loading protocol was chosen to avoid short-term plasticity and “re-use” of vesicles through “kiss-run” mode of exocytosis (Aravanis et al., 2003). The neurons were stimulated to fire action potentials by passing 1 ms 50 mA current through platinum electrodes placed at a distance of 7 mm from both sides of the chamber. To ensure reliable action potential initiation, the current amplitude was chosen to be 50% above the threshold for action potential generation, as confirmed by whole-cell patch clamp recording. To prevent recurrent activity, excitatory postsynaptic responses were blocked completely by the addition of DL-AP5 (50 μM, Sigma) and NBQX (10 μM, Sigma) during FM loading and unloading procedures. […]
To further determine the number of these very low Pr terminals and their proportion to the whole population of functional synaptic terminals, we compared the co-localization of FM puncta obtained for the 30 AP loading with puncta obtained using fluorescent antibodies against specific presynaptic proteins. […] Twenty percent more functional synapses were detected by this procedure, also consistent with a previous report (Murthy et al., 1997). […]

Sequence of NMDA receptors (NR2B-containing) (Q00960 27-1482, other chains not shown): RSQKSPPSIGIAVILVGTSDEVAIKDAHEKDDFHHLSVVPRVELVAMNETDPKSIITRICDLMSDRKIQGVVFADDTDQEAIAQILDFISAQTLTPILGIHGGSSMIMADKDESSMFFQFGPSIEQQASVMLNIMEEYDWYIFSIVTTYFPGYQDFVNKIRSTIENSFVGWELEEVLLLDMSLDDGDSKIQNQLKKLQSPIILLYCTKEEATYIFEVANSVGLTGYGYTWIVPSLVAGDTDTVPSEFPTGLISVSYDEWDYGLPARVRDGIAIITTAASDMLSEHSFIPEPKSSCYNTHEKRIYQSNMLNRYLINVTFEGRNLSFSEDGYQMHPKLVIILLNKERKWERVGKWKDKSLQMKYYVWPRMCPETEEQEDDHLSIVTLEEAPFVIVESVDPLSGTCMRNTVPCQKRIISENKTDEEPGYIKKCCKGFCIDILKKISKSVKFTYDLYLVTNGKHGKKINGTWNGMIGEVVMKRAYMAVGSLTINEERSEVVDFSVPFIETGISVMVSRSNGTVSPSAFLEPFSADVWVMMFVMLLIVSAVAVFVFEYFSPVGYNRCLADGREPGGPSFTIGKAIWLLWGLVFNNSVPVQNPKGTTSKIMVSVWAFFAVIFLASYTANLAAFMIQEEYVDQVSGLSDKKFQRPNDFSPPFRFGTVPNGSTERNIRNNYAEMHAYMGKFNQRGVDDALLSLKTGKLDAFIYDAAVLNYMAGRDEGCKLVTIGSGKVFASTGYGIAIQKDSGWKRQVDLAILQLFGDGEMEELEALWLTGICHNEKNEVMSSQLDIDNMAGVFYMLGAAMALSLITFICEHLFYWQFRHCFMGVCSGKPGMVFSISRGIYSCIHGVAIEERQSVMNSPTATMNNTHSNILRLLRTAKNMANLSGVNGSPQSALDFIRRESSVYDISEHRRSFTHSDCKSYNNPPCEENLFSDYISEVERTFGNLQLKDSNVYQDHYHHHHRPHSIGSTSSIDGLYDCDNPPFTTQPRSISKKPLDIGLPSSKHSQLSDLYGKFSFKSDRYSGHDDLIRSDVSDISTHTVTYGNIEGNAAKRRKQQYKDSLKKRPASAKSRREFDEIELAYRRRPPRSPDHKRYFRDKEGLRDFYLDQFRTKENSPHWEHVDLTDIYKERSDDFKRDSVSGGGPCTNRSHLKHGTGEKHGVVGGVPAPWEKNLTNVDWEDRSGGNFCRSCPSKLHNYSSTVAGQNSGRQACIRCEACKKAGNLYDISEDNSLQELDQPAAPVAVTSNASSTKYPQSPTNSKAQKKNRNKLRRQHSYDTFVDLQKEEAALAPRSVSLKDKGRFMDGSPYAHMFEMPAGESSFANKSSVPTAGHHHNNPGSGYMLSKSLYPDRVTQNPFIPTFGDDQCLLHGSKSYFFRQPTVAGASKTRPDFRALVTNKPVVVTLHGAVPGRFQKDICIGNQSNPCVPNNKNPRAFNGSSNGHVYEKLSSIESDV
T1 sequence (O88871 41-940): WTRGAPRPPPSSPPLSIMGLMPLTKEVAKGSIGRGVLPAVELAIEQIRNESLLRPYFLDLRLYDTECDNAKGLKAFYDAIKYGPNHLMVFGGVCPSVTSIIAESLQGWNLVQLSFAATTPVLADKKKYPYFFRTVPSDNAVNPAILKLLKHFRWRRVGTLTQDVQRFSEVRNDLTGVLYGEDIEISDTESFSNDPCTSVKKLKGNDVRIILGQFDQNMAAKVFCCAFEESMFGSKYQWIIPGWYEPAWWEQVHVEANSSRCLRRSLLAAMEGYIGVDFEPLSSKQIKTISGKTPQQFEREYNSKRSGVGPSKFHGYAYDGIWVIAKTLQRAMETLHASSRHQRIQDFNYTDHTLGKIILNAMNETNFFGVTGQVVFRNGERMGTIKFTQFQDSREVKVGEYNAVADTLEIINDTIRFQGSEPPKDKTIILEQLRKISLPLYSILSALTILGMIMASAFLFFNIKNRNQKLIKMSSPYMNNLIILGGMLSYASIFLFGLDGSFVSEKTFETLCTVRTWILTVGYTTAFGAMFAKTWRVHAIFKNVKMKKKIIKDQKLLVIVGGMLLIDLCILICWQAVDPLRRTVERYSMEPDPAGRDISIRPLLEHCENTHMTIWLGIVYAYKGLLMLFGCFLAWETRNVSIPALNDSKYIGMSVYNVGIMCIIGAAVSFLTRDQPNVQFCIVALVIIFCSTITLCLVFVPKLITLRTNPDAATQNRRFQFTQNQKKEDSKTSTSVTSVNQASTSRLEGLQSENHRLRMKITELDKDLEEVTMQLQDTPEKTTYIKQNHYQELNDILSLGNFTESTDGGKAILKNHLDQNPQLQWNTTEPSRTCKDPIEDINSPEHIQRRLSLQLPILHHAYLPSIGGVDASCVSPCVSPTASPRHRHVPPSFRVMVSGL
T1 sequence (Q9Z0U4 17-960): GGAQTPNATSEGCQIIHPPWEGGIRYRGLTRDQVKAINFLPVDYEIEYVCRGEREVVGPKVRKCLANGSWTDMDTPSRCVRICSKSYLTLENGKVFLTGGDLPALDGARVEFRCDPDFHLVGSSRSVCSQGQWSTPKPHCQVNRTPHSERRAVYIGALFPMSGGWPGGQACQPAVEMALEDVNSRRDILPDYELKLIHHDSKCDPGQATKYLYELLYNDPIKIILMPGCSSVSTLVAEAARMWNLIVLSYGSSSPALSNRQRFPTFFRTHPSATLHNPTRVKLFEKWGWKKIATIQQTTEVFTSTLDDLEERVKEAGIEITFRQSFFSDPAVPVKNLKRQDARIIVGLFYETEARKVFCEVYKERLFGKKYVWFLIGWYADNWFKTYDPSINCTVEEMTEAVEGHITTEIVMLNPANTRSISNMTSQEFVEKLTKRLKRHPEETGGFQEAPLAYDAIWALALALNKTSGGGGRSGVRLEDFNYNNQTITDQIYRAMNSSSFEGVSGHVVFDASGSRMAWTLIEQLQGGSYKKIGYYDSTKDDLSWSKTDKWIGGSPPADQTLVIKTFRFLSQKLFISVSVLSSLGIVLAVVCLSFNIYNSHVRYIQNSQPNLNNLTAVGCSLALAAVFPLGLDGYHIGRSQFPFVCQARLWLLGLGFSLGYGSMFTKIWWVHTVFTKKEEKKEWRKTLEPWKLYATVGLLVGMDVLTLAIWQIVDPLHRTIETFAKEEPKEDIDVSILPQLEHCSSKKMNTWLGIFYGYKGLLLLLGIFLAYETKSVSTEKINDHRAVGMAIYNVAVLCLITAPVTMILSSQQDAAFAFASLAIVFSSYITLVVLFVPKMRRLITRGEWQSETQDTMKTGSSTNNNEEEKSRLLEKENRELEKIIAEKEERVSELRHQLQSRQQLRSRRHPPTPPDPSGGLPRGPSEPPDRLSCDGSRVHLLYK

Molecule: N[C@@H](CO)C(=O)O [L-Ser]
- potency as potentiator of GABAB receptor-mediated hyperpolarizing responses to baclofen [1]: less potent

Molecule: CN1C(=O)CN=C(c2ccccc2F)c2cc([N+](=O)[O-])ccc21 [flunitrazepam, reference compound]
- TBS-induced potentiation / plasticity after prolonged treatment [2]: no significant TBS-induced potentiation; also recorded: lose plasticity

Molecule: D-AP5 [reference compound]
- effect of NMDA antagonist on the increase in postsynaptic current [3]: blocked it
- theta-burst-induced changes of Pr (F2/F1, N2/N1, S2/S1) in presence of NMDAR blocker [2]: No detectable changes of Pr

Molecule: N=C(N)NCCC[C@H](N)C(=O)O [L-Arg]
- potency as potentiator of GABAB receptor-mediated hyperpolarizing responses to baclofen [1]: less potent

Molecule: CC(C(O)c1ccc(O)cc1)N1CCC(Cc2ccccc2)CC1 (stereo not drawn) [ifenprodil]
- reduction of TBS-induced presynaptic potentiation ([2]; 1 μM ifenprodil, 1.2 mM Mg^2+ cultures): 50% and 48±7%
- reduction of current [4]: 53%
- reduction of total charge transfer [4]: 85% and 45%
- reduction of total charge transfer of EPSCNMDA [4]: 80% and 45% and 45±2%

Molecule: N[C@@H](Cc1ccc(O)cc1)C(=O)O [L-Tyr]
- potency as potentiator of GABAB receptor-mediated hyperpolarizing responses to baclofen [1]: less potent

Molecule: NS(=O)(=O)c1cccc2c1c([N+](=O)[O-])cc1nc(O)c(O)nc12 [NBQX, reference compound]
- TBS-induced potentiation / plasticity after prolonged treatment [2]: no significant TBS-induced potentiation; also recorded: lose plasticity
- change of synaptic density [5]: No short treatment (2-24 hr, baclofen, nimodepine, NBQX, and TTX) produced a significant change of synaptic density

Molecule: N[C@@H](Cc1ccccc1)C(=O)O [L-Phe]
- potency as potentiator of GABAB receptor-mediated hyperpolarizing responses to baclofen [1]: Most potent

Molecule: C[C@@H](O)[C@H](N)C(=O)O [L-Thr]
- potency as potentiator of GABAB receptor-mediated hyperpolarizing responses to baclofen [1]: less potent

Molecule: N[C@@H](CSSC[C@H](N)C(=O)O)C(=O)O [L-Cystine]
- potency as potentiator of GABAB receptor-mediated hyperpolarizing responses to baclofen [1]: less potent

Molecule: N[C@@H](CS)C(=O)O [L-Cys]
- potency as potentiator of GABAB receptor-mediated hyperpolarizing responses to baclofen [1]: less potent

Molecule: L-Ile
- potency as potentiator of GABAB receptor-mediated hyperpolarizing responses to baclofen [1]: Most potent

Molecule: [Zn+2] [Zn^++]
- change in average firing rates of neurons within cultured neural networks [6]: none of these treatments induces a significant change
- plasticity of presynaptic terminals after partial block of Ca flux ([2]; 0.4 mM Mg^++ added or 5 mM Zn^++ two weeks, 10 mM nimodipine 2 days): significant increases of plasticity
- optimal concentration for plasticity (maximal potentiability) ([2]; 2 weeks treatment): 2 mM
- increase of synaptic strength at optimum concentration ([2]; FIGS. 6H-6J): up to approximately five-fold

Molecule: CSCC[C@H](N)C(=O)O [L-Met]
- potency as potentiator of GABAB receptor-mediated hyperpolarizing responses to baclofen [1]: less potent

Molecule: CC(C)[C@H](N)C(=O)O [L-Val]
- potency as potentiator of GABAB receptor-mediated hyperpolarizing responses to baclofen [1]: less potent

Molecule: N[C@@H](Cc1ccccc1)C(=O)N[C@@H](Cc1ccccc1)C(=O)O [L-Phe-Phe] (H-Phe-Phe-OH)
- potency as potentiator of GABAB receptor-mediated hyperpolarizing responses to baclofen [1]: Most potent

Molecule: CC(C)C[C@H](N)C(=O)O [L-Leu]
- potency as potentiator of GABAB receptor-mediated hyperpolarizing responses to baclofen [1]: Most potent

Molecule: CC(C)C[C@H](NC(=O)[C@@H](N)Cc1ccccc1)C(=O)O [L-Phe-Leu] (H-Phe-Leu-OH)
- potency as potentiator of GABAB receptor-mediated hyperpolarizing responses to baclofen [1]: Most potent

B1: BDNF: neurotrophin known to increase the Pr of synaptic terminals (protein, UniProt P23560 19-247, looked up)
Neurotrophic factor BDNF …: APMKEANIRGQGGLAYPGVRTHGTLESVNGPKAGSRGLTSLADTFEHVIEELLDEDQKVRPNEENNKDADLYTSRVMLSSQVPLEPPLLFLLEEYKNYLDAANMSMRVRRHSDPARRGELSVCDSISEWVTAADKKTAVDMSGGTVTVLEKVPVSKGQLKQYFYETKCNPMGYTKEGCRGIDKRHWNSQCRTTQSYVRALTMDSKKRIGWRFIRIDTSCVCTLTIKRGR
- FM dye uptake by structural synaptic terminals [7]: all structural synaptic terminals became capable of taking up FM dye

Reference: patent publication US20060089335A1, “Compositions and methods for enhancing cognitive function and synaptic plasticity” (priority 2003, published 2006)
